{"source": "paper PMC10096163", "about": "“Structural Insights and Intermolecular Energy for Some Medium and Long-Chain Testosterone Esters” (Molecules, 2023)", "key": {"[1]": {"test": "Solubility of esters in benzyl alcohol / benzyl benzoate / oil mixtures", "assay_type": "physicochemical", "settings": "for solubility: oil or lipid, thermodynamic from solid", "method": "The esters’ solubility (mg/mL) was evaluated in mixtures which included different solvents and organic oils, such as medium-chain triglyceride (MCT), apricot, grape seed (GSO), castor, cottonseed, […] sesame oil.\nThe solutions contained mixtures of benzyl alcohol, benzyl benzoate and oil, with a volumetric ratio of 2% benzyl alcohol, 20% benzyl benzoate and 78% oil. Numerous pharmaceuticals of various lipophilic agents (various steroids were included) use benzyl benzoate as a co-solvent/solubilizer; benzyl alcohol behaves as well as a solvent and inhibits the microbial growth, and meanwhile the oils act as carriers.\nIn certain cases, an excess of raw samples remained undissolved (in suspension) and small quantities of mixtures were added, ensuring that the resulting solutions became homogenous, clear and transparent. Three measurements were taken to improve accuracy, and their average value was used."}, "[2]": {"settings": "cited from earlier work"}, "[3]": {"design": "method as in PMID 36295310", "settings": "short esters, previously reported; cited from earlier work"}, "[4]": {"settings": "14 °C, 2% benzyl alcohol, 20% benzyl benzoate, 78% medium-chain triglyceride, 14 °C, average of three measurements, read-out: Solubility MCT"}, "[5]": {"settings": "14 °C, average over the six oil mixtures, 14 °C, read-out: Average solubility"}, "[6]": {"settings": "benzyl alcohol / benzyl benzoate / apricot oil mixture, 14 °C, 2% benzyl alcohol, 20% benzyl benzoate, 78% apricot oil, 14 °C, average of three measurements, read-out: Solubility APRICOT"}, "[7]": {"settings": "benzyl alcohol / benzyl benzoate / castor oil mixture, 14 °C, 2% benzyl alcohol, 20% benzyl benzoate, 78% castor oil, 14 °C, average of three measurements, read-out: Solubility CASTOR"}, "[8]": {"settings": "benzyl alcohol / benzyl benzoate / cottonseed oil mixture, 14 °C, 2% benzyl alcohol, 20% benzyl benzoate, 78% cottonseed oil, 14 °C, average of three measurements, read-out: Solubility COTTON"}, "[9]": {"settings": "benzyl alcohol / benzyl benzoate / grape seed oil mixture, 14 °C, 2% benzyl alcohol, 20% benzyl benzoate, 78% grape seed oil, 14 °C, average of three measurements, read-out: Solubility GSO"}, "[10]": {"settings": "benzyl alcohol / benzyl benzoate / sesame oil mixture, 14 °C, 2% benzyl alcohol, 20% benzyl benzoate, 78% sesame oil, 14 °C, average of three measurements, read-out: Solubility SESAME"}, "[11]": {"settings": "esterified form, intramuscular or subcutaneous injection"}}, "note": "Where two headings read alike, the source gives them in different places.", "data": [{"compound": "C[C@]12CC[C@H]3[C@@H](CCC4=CC(=O)CC[C@@]43C)[C@@H]1CC[C@@H]2OC(=O)CCC1CCCC1", "note": "[TCyp, Androst-4-en-17β-ol-3-one 17β-cyclopentylpropionate]", "values": [{"measurement": "solubility", "setting": "[1]; [4]", "result": 257, "unit": "mg/mL"}, {"measurement": "solubility", "setting": "[1]; [5]", "result": "~255", "unit": "mg/mL"}, {"measurement": "solubility", "setting": "[1]; [6]", "result": 238, "unit": "mg/mL"}, {"measurement": "solubility", "setting": "[1]; [7]", "result": 287, "unit": "mg/mL"}, {"measurement": "solubility", "setting": "[1]; [8]", "result": 236, "unit": "mg/mL"}, {"measurement": "solubility", "setting": "[1]; [9]", "result": 239, "unit": "mg/mL"}, {"measurement": "solubility", "setting": "[1]; [10]", "result": 278, "unit": "mg/mL"}]}, {"compound": "CCCCCCCCCC(=O)OC1CCC2C3CCC4=CC(=O)CCC4(C)C3CCC12C", "note": "(stereo not drawn) [TDec, Androst-4-en-17β-ol-3-one 17β-decanoate]", "values": [{"measurement": "solubility", "setting": "[1]; [4]", "result": 597, "unit": "mg/mL"}, {"measurement": "solubility", "setting": "[1]; [5]", "result": 534, "unit": "mg/mL"}, {"measurement": "Solubility fold greater than the other esters", "setting": "[1]; TDec compared with TCyp and TUnd, average solubility", "result": "2.5–3 fold"}, {"measurement": "solubility", "setting": "[1]; [6]", "result": 537, "unit": "mg/mL"}, {"measurement": "solubility", "setting": "[1]; [7]", "result": 530, "unit": "mg/mL"}, {"measurement": "solubility", "setting": "[1]; [8]", "result": 496, "unit": "mg/mL"}, {"measurement": "solubility", "setting": "[1]; [9]", "result": 497, "unit": "mg/mL"}, {"measurement": "solubility", "setting": "[1]; [10]", "result": 549, "unit": "mg/mL"}]}, {"compound": "C[C@]12CC[C@H]3[C@@H](CCC4=CC(=O)CC[C@@]43C)[C@@H]1CC[C@@H]2O", "note": "[Testosterone, 17β-Hydroxyandrost-4-en-3-one]", "values": [{"measurement": "Half-life", "setting": "[2]; non-esterified testosterone", "result": "a few hours"}]}, {"compound": "CC(C)CCC(=O)O[C@H]1CC[C@H]2[C@@H]3CCC4=CC(=O)CC[C@]4(C)[C@H]3CC[C@]12C", "note": "[isocaproate]", "values": [{"measurement": "Solubility, averaging", "setting": "[3]", "result": 447, "unit": "mg/mL"}]}, {"compound": "CC(=O)O[C@H]1CC[C@H]2[C@@H]3CCC4=CC(=O)CC[C@]4(C)[C@H]3CC[C@]12C", "note": "[testosterone acetate]", "values": [{"measurement": "Solubility, averaging", "setting": "[3]", "result": 110, "unit": "mg/mL"}, {"measurement": "Half-life", "setting": "[2]; [11]", "result": "less than 24 h"}]}, {"compound": "Androst-4-en-17β-ol-3-one 17β-undecanoate [TUnd]", "values": [{"measurement": "Solubility APRICOT", "setting": "[1]; 2% benzyl alcohol, 20% benzyl benzoate, 78% apricot oil, 14 °C, average of three measurements", "result": 200.1, "unit": "mg/mL"}, {"measurement": "Solubility CASTOR", "setting": "[1]; 2% benzyl alcohol, 20% benzyl benzoate, 78% castor oil, 14 °C, average of three measurements", "result": 196.3, "unit": "mg/mL"}, {"measurement": "Solubility COTTON", "setting": "[1]; 2% benzyl alcohol, 20% benzyl benzoate, 78% cottonseed oil, 14 °C, average of three measurements", "result": 195.5, "unit": "mg/mL"}, {"measurement": "Solubility GSO", "setting": "[1]; 2% benzyl alcohol, 20% benzyl benzoate, 78% grape seed oil, 14 °C, average of three measurements", "result": 183.1, "unit": "mg/mL"}, {"measurement": "Solubility MCT", "setting": "[1]; 2% benzyl alcohol, 20% benzyl benzoate, 78% medium-chain triglyceride, 14 °C, average of three measurements", "result": 201.8, "unit": "mg/mL"}, {"measurement": "Solubility SESAME", "setting": "[1]; 2% benzyl alcohol, 20% benzyl benzoate, 78% sesame oil, 14 °C, average of three measurements", "result": 209.1, "unit": "mg/mL"}, {"measurement": "Average solubility", "setting": "[1]; average over the six oil mixtures, 14 °C", "result": "roughly 197 mg/mL"}, {"measurement": "Half-life", "setting": "[2]; [11]", "result": "up to 36 days"}]}]}
